Marks after values point to notes of the source that are not given here. Where a SMILES comes first, the peptide text is derived from it. [ ]: non-standard residue; d: D form. The star is where a group is joined. X1 = CCN(CC)c1ccc2c(c1)Oc1cc(N(CC)CC)ccc1C2c1ccccc1C(=O)*; Ac6c = NC1(C(=O)O)CCCCC1; Ac5c = NC1(C(=O)O)CCCC1
Key:
[1] = test system: Candida albicans; assay: Antifungal activity test, paper disc diffusion; format: cell-based; conditions: C. albicans, Sabouraud Agar, 20 μL of 50 mg/mL, 24 h
Method: Tests were carried out on the Candida albicans fungus. The concentration of the extract tested was 50 mg/mL. The culture of each test fungus was taken to be tilted using an asepticose needle and rejuvenated in a liquid medium. In each medium, there is a spore density of […]. The prepared medium Sabouraud Agar (SA) in a petri dish with each culture was scratched on the top, then placed on the paper disc (paper disc), and then a peptide sample of 20 μL was placed on the paper disc. It was further incubated for 24 h and the resistance zone formed measured.

[2] = test system: tonic seizures (MES); assay: Maximal electroshock test (MES test); format: in vivo, mice; conditions: i.c.v.; for % Mortality / % Protection / No. of Animals Protected/No. of Animals Tested: male ICR mice; for No. of Animals Protected/No. of Animals Tested: test 10 min after administration
From the text: (§1) The screeing test for anticonvulsant activity of drugs was perfomed on male ICR mice (25–30 g), purchased by the vivarium of the Institute of Neurobiology, BAS. They were kept in standard laboratory conditions and cages in groups of 5–6 per cage with ad libitum access to commercial pellets for rodents and water. After a week of adaptation, all mice were allocated in groups of 6 according to their treatment and test procedure. Each mouse was used only for one experiment. All procedures were performed in agreement with the European Communities Council Directive 2010/63/EU. The experimental design was approved by the Bulgarian Food Safety Agency (#300/№ 5888–0183).
(§2) […] The test for anticonvulsant activity was carried out 10 min after drug administration.
The MES test was carried out with the device used for the 6-Hz test according to the protocol reported in [38, 39]. The criterion for protection was accepted when the mouse […].
(§3) For the 6-Hz test and MES a Fisher’s exact test (two-tailed) was applied. A one-way ANOVA of variance was used for the ivPTZ test and a Dunnet post hoc test in case of significance. Statistical significance was accepted at p ≤ 0.05 vs. control (Fisher’s exact test). The calculations were carried out with SigmaPlot program (11.0 version) and Graph Pad Prizm (Version 7.04) (GraphPad Software, San Diego, CA, USA).

[3] = test system: 6-Hz-induced psychomotor seizures; assay: Six Hz psychomotor seizure test; format: in vivo, mice; conditions: i.c.v.; for % Protection / No. of Animals Protected/No. of Animals Tested: 6 Hz test, male ICR mice, test 10 min after administration; for anticonvulsant effect against 6-Hz-induced psychomotor seizures (in words): highest dose of 20 μg
From the text: as §1, §2
The test for assessment drug effect against psychomotor seizures was performed via a constant current device and corneal electrodes as previously. The criterion for assessing the anticonvulsant activity was restoration of normal posture 10 s after stimulation. Controls (mice treated with vehicle) were unable to resume normal behavior and stimulation trigger different stereotypic responses and automatism such as sniffing, vibrissae, locomotion, Straub tail, or clonic seizures.
as §3

[4] = Antioxidant activity, DPPH radical scavenging; conditions: 77 μL sample + 3 mL DPPH, 30 min in the dark, 517 nm, standard BHT
Method: The determination of the antioxidant activity of the new peptide derivatives was carried out by inserting 77 μL of hL extract into a test tube, then adding 3 mL of DPPH solution, homogenizing, and incubating for 30 min in a dark room. The measurement of antioxidant activity was performed by a spectrophotometer with a wavelength of 517 nm. The treatment was carried out three times. The determination of activity for the standard solution was conducted by first diluting 0.025 BHT (butylated hydroxytoluene) with 1 mL of methanol. Then 3 mL of DPPH was added to 77 μL of BHT solution in a test tube, homogenized, and incubated for 30 min in a dark room. The treatment was repeated three times. For the blank, only 77 μL of methanol plus 3 mL of DPPH were used, then homogenized and incubated for 30 min in a dark room. According to Millauskas et al. (2004), the free radical scavenging activity of the sample was calculated by the formula:(3) DPPH radical concentration (%)=Acontrol− Asample/Acontrol × 100 where Acontrol is the absorbance value of the control reaction and Asample is the absorbance value in the presence of the tested extracts sample.

[5] = mice, p ≤ 0.05 compared to control

## CCN(CC)c1ccc2c(c1)Oc1cc(N(CC)CC)ccc1C2c1ccccc1C(=O)N[C@@H](CC(C)C)C(=O)N[C@H](C(=O)N[C@H](C(=O)N[C@@H](Cc1ccc(O)cc1)C(=O)NC1(C(=O)N[C@@H](Cc2c[nH]c3ccccc23)C(=O)N[C@H](C(N)=O)[C@@H](C)O)CCCC1)C(C)C)C(C)C [Rh-S5, rhodamineB-Leu-Val-Val-Tyr-Ac5c-Trp-Thr-NH2] (X1-LVVY[Ac5c]WT-NH2)
[1]
  antifungal activity, diameter of the inhibitory zone (in words): slightly higher than the negative control
[2]; MES test, dose 5 µg/10 µL
  % Mortality: 17%
  % Protection: 41%
[2]; MES test, dose 10 µg/10 µL
  % Mortality: 17%
  % Protection: 42%
  No. of Animals Protected/No. of Animals Tested: 5/12
[2]; MES test, dose 20 µg/10 µL
  % Mortality: 17%
  % Protection: 67 * %
  No. of Animals Protected/No. of Animals Tested: 4/6
[2]; MES test, mice, dose of 20 µg, p ≤ 0.05 compared to control
  protective potency against tonic seizures (in words): stronger protective potency compared to the heptapeptide Rh-S
[3]; dose 5 µg/10 µL
  % Protection: 17%
  No. of Animals Protected/No. of Animals Tested: 1/6
[3]; dose 10 µg/10 µL
  % Protection: 33%
  No. of Animals Protected/No. of Animals Tested: 2/6
[3]; dose 20 µg/10 µL
  % Protection: 83 * %
  No. of Animals Protected/No. of Animals Tested: 5/6
[3]; [5]
  anticonvulsant effect against 6-Hz-induced psychomotor seizures (in words): significant anticonvulsant effect
[4]
  antioxidant activity compared to the positive control (in words): weak

## CCN(CC)c1ccc2c(c1)Oc1cc(N(CC)CC)ccc1C2c1ccccc1C(=O)N[C@@H](CC(C)C)C(=O)N[C@H](C(=O)N[C@H](C(=O)N[C@@H](Cc1ccc(O)cc1)C(=O)NC1(C(=O)N[C@@H](Cc2c[nH]c3ccccc23)C(=O)N[C@H](C(N)=O)[C@@H](C)O)CCCCC1)C(C)C)C(C)C [Rh-S6, rhodamineB-Leu-Val-Val-Tyr-Ac6c-Trp-Thr-NH2] (X1-LVVY[Ac6c]WT-NH2)
[1]
  antifungal activity, diameter of the inhibitory zone (in words): slightly higher than the negative control
[2]; MES test, dose 5 µg/10 µL
  % Mortality: 0%
  % Protection: 100 * %
  No. of Animals Protected/No. of Animals Tested: 6/6
[2]; MES test, dose 10 µg/10 µL
  % Mortality: 0%
  % Protection: 100 * %
  No. of Animals Protected/No. of Animals Tested: 6/6
[2]; MES test, dose 20 µg/10 µL
  % Mortality: 0%
  % Protection: 100 * %
  No. of Animals Protected/No. of Animals Tested: 6/6
[2]; mice, at the three doses studied (5, 10 and 20 μg)
  mortality in the MES test (in words): no mortality
[2]; mice, at the three doses studied (5, 10 and 20 μg), p ≤ 0.05 compared to control
  protection in the MES test: 100%
[3]; dose 5 µg/10 µL
  % Protection: 33%
  No. of Animals Protected/No. of Animals Tested: 2/6
[3]; dose 10 µg/10 µL
  % Protection: 50%
  No. of Animals Protected/No. of Animals Tested: 3/6
[3]; dose 20 µg/10 µL
  % Protection: 67 * %
  No. of Animals Protected/No. of Animals Tested: 4/6
[3]; [5]
  anticonvulsant effect against 6-Hz-induced psychomotor seizures (in words): significant anticonvulsant effect
[4]
  antioxidant activity compared to the positive control (in words): similar

## CCN(CC)c1ccc2c(c1)Oc1cc(N(CC)CC)ccc1C2c1ccccc1C(=O)N[C@@H](CC(C)C)C(=O)N[C@H](C(=O)N[C@H](C(=O)N[C@@H](Cc1ccc(O)cc1)C(=O)N1CCC[C@H]1C(=O)N[C@@H](Cc1c[nH]c2ccccc12)C(=O)N[C@H](C(N)=O)[C@@H](C)O)C(C)C)C(C)C [Rh-S, rhodamineB-Leu-Val-Val-Tyr-Pro-Trp-Thr-NH2] (X1-LVVYPWT-NH2)
[1]
  antifungal activity, diameter of the inhibitory zone (in words): slightly higher than the negative control
[2]; MES test, dose 5 µg/10 µL
  % Mortality: 50%
  % Protection: 50%
  No. of Animals Protected/No. of Animals Tested: 3/6
[2]; MES test, dose 10 µg/10 µL
  % Mortality: 0%
  % Protection: 50%
  No. of Animals Protected/No. of Animals Tested: 3/6
[2]; MES test, dose 20 µg/10 µL
  % Mortality: 33%
  % Protection: 67 * %
  No. of Animals Protected/No. of Animals Tested: 4/6
[3]; dose 5 µg/10 µL
  % Protection: 67 * %
  No. of Animals Protected/No. of Animals Tested: 4/6
[3]; dose 10 µg/10 µL
  % Protection: 100 * %
  No. of Animals Protected/No. of Animals Tested: 6/6
[3]; dose 20 µg/10 µL
  % Protection: 67 * %
  No. of Animals Protected/No. of Animals Tested: 4/6
[3]; mice, at the three doses used (5, 10, and 20 μg), p ≤ 0.05 compared to control
  protection against 6-Hz-induced psychomotor seizures (in words): significant protection
[4]
  antioxidant activity compared to the positive control (in words): similar

From paper PMC9611726, “Synthesis, Characterization and Biological Investigation of New N-Modified Spinorphin Analogs” (Pharmaceuticals, 2022)
